Assay results from article PMC9977398, “Next-generation membrane-active glycopeptide antibiotics that also inhibit bacterial cell division” (Chemical Science, 2023).

Experiments:
[1] = system: MRSA; assay: Antagonization assay with Ac2KAA or lipoteichoic acid; assay type: cell-based, S. aureus; settings: for change in MIC in presence of lipoteichoic acid: 100 μg/mL lipoteichoic acid as competing ligand
Description: Ac2KAA can act as a competitive ligand to the target of glycopeptide antibiotics and therefore antagonize antibacterial activity. In the presence of 500 μM of Ac2KAA, the activity of VanQAmC10 (8) was reduced by 2-fold. However, the MIC of vancomycin increased from 0.6 μM to >30 μM ([…] increase in MIC) in presence of the same amount of Ac2KAA. The 2-fold reduction in the activity of VanQAmC10 (8) accounts for the loss of activity due to D-Ala–D-Ala binding. This implied that it acted through additional mechanisms that are independent of Ala-D-Ala binding. The presence of the positive charge in VanQAmC10 (8) could result in interactions with the negatively charged components of the bacterial cell wall like teichoic acid. C-terminal trimethyl ammonium modified vancomycin derivative has been reported to bind to teichoic acid.[32] […]
Antagonization of antibacterial activity of AAV-qC10 was determined by addition of 500 μM
N,N՛-diacetyl–L-Lys–D-Ala–D-Ala or 100 μg/mL of lipoteichoic acid to serial dilutions of the […]

[2] = system: GFP-FtsI expressing E. coli; assay: GFP-FtsI localization and morphology; assay type: cell-based; settings: for localization of GFP-FtsI: vancomycin 34 μM, VanQAmC10 10 and 15 μM
Description: FtsI or PBP-3 is the only transpeptidase required for bacterial cell division and localizes to the septal ring.[37] It regulates the degree of cross-linking and coordinates the division process. GFP-tagged FtsI producing E. coli cells were treated with vancomycin (at 34 μM) and VanQAmC10 (at 10 μM and 15 μM; Fig. 5C) and then examined under the microscope. […] Upon treatment with 10 μM of VanQAmC10, larger phenotypes of variable sizes are observed with shape defects. Some cells appear filamentous like in the case of cephalexin. The GFP-FtsI protein appears as green fluorescent spots delocalized across the cell in 60% of the cells visualized. At a higher concentration of 15 μM, bulkier cells with more distorted shapes than those at 10 μM were observed (Fig. S5 ^†). […]
(§1) resuspended in prewarmed BMM media. 1:1 BAC light dye was then added to the bacterial suspension and incubated for 5 minutes. The fluorescence in the GFP and Texas red channels was then observed under the microscope. The experiments were performed three times independently and the images are representative of results from three independent experiments.
B. subtilis 1981 GFP-MinD was cultured overnight in BMM.8 Cells were then inoculated in xylose containing BMM instead of glucose to an OD500 of 0.1 to induce expression of the GFP-MinD fusion protein. Upon reaching an OD500 of 0.35, the cells were treated with test compounds at the PEC (vancomycin, VanQAmC10, VanQbiph) and 0.75 μg/mL (nisin) for 15 min. 0.5 μl of nonfixed, non-immobilized samples of the culture were imaged immediately in fluorescent mode (Olympus microscope with a U-LH100HGAPO burner and a U-RFL-T power supply). The experiments were performed three times independently and the images are representative of results from three independent experiments.
GFP-FtsI and GFP-FtsZ localization in E. coli […]
(§2) About 6 μl of sample was immobilized on 1% agarose pad . DIC and fluorescence images were obtained at different time intervals using Nikon Eclipse Ti Microscope equipped with Nikon DS-U3 camera through Plan Apo 100×/1.40 oil objective. […]

[3] = system: ΔamiAC MG1655 E. coli; assay: Antibacterial activity against ΔamiAC MG1655 E. coli; assay type: cell-based; settings: LB media, 18 h
Description: The bacterial amidases help cleave the septum in the final stage of cell division to produce daughter cells.[39] In the absence of amidases, chains of unseparated cells are formed (Fig. 5D). These retain distinct cytoplasmic compartments but share an outer membrane.[39] These cells are known to be hypersensitive to antibiotics and detergents. However, ΔamiAC mutations are resistant to killing by cephalexin.[38] The MIC of VanQAmC10 against the ΔamiAC mutant was reduced to 4 μM, while that of vancomycin was >10 μM. […] This is indicative of impaired cell division. Cell debris due to lysis after compound treatment are also visible. […]
as §1, with “experiments. […]” for “experiments.”
as §2
from 10 μg/mL. The bacteria with compounds and untreated control were incubated for 18 h at 37 ̊C under shaking and OD600 was measured. […]

Row | SMILES | change in MIC in presence of lipoteichoic acid [1] | fold reduction of activity in presence of Ac2KAA ([1]; 500 μM Ac2KAA, MRSA) [fold] | cells with delocalized GFP-FtsI ([2]; 10 μM) [%] | localization of GFP-FtsI [2] | MIC against the ΔamiAC mutant [3] [µM] | fold increase in MIC in presence of Ac2KAA ([1]; 500 μM Ac2KAA, MRSA) [fold] | MIC ([1]; Staphylococcus aureus, 500 μM Ac2KAA, MRSA, read-out: MIC in presence of Ac2KAA) [µM]
1 | CCCCCCCCCCNC(=O)C[N+](C)(C)CCCNC(=O)C1NC(=O)C2NC(=O)C(NC(=O)C3NC(=O)C(CC(N)=O)NC(=O)C(NC(=O)C(CC(C)C)NC)C(O)c4ccc(c(Cl)c4)Oc4cc3cc(c4OC3OC(CO)C(O)C(O)C3OC3CC(C)(N)C(O)C(C)O3)Oc3ccc(cc3Cl)C2O)c2ccc(O)c(c2)-c2c(O)cc(O)cc21 (stereo not shown) [VanQAmC10 (8)] | no change in the MIC | 2 | 60 | mislocalizes the cell division protein, FtsI | 4 |  | 
2 | CN[C@H](CC(C)C)C(=O)N[C@H]1C(=O)N[C@@H](CC(N)=O)C(=O)N[C@H]2C(=O)N[C@H]3C(=O)N[C@H](C(=O)N[C@H](C(=O)O)c4cc(O)cc(O)c4-c4cc3ccc4O)[C@H](O)c3ccc(c(Cl)c3)Oc3cc2cc(c3O[C@@H]2O[C@H](CO)[C@@H](O)[C@H](O)[C@H]2O[C@H]2C[C@](C)(N)[C@H](O)[C@H](C)O2)Oc2ccc(cc2Cl)[C@H]1O [Vancomycin, reference compound] | no change in the MIC |  |  | localization of FtsI at the septum | > 10 | > 40 | > 30
